Assay results: BigSolDB 2.1

Settings: in n-octanol, 293.15 K

Row | Structure (SMILES) | solubility (mole fraction)
1 | O=C(Cn1cnc2c(sc(=S)n2-c2ccc(Cl)cc2)c1=O)NCC(O)(Cn1cncn1)c1ccc(F)cc1F (stereo not given) | 0.000548
2 | O=C(Cn1cnc2c(sc(=S)n2-c2ccc(F)cc2)c1=O)NCC(O)(Cn1cncn1)c1ccc(F)cc1F (stereo not given) | 0.000335
3 | Cc1ccc(-n2c(=S)sc3c(=O)n(CC(=O)NCC(O)(Cn4cncn4)c4ccc(F)cc4F)cnc32)cc1 (stereo not given) | 0.000299
4 | COc1ccccc1-n1c(=S)sc2c(=O)n(CC(=O)NCC(O)(Cn3cncn3)c3ccc(F)cc3F)cnc21 (stereo not given) | 0.00182

Same assay, conditions: in n-octanol, 298.15 K

Row | Structure (SMILES) | solubility (mole fraction)
5 | O=C(Cn1cnc2c(sc(=S)n2-c2ccc(Cl)cc2)c1=O)NCC(O)(Cn1cncn1)c1ccc(F)cc1F (stereo not given) | 0.000617
6 | O=C(Cn1cnc2c(sc(=S)n2-c2ccc(F)cc2)c1=O)NCC(O)(Cn1cncn1)c1ccc(F)cc1F (stereo not given) | 0.000382
7 | Cc1ccc(-n2c(=S)sc3c(=O)n(CC(=O)NCC(O)(Cn4cncn4)c4ccc(F)cc4F)cnc32)cc1 (stereo not given) | 0.000368
8 | COc1ccccc1-n1c(=S)sc2c(=O)n(CC(=O)NCC(O)(Cn3cncn3)c3ccc(F)cc3F)cnc21 (stereo not given) | 0.00212

Same assay, conditions: in n-octanol, 303.15 K

Row | Structure (SMILES) | solubility (mole fraction)
9 | O=C(Cn1cnc2c(sc(=S)n2-c2ccc(Cl)cc2)c1=O)NCC(O)(Cn1cncn1)c1ccc(F)cc1F (stereo not given) | 0.000699
10 | O=C(Cn1cnc2c(sc(=S)n2-c2ccc(F)cc2)c1=O)NCC(O)(Cn1cncn1)c1ccc(F)cc1F (stereo not given) | 0.000439
11 | Cc1ccc(-n2c(=S)sc3c(=O)n(CC(=O)NCC(O)(Cn4cncn4)c4ccc(F)cc4F)cnc32)cc1 (stereo not given) | 0.000444
12 | COc1ccccc1-n1c(=S)sc2c(=O)n(CC(=O)NCC(O)(Cn3cncn3)c3ccc(F)cc3F)cnc21 (stereo not given) | 0.00253

Same assay, conditions: in n-octanol, 308.15 K

Row | Structure (SMILES) | solubility (mole fraction)
13 | O=C(Cn1cnc2c(sc(=S)n2-c2ccc(Cl)cc2)c1=O)NCC(O)(Cn1cncn1)c1ccc(F)cc1F (stereo not given) | 0.000773
14 | O=C(Cn1cnc2c(sc(=S)n2-c2ccc(F)cc2)c1=O)NCC(O)(Cn1cncn1)c1ccc(F)cc1F (stereo not given) | 0.000495
15 | Cc1ccc(-n2c(=S)sc3c(=O)n(CC(=O)NCC(O)(Cn4cncn4)c4ccc(F)cc4F)cnc32)cc1 (stereo not given) | 0.000531
16 | COc1ccccc1-n1c(=S)sc2c(=O)n(CC(=O)NCC(O)(Cn3cncn3)c3ccc(F)cc3F)cnc21 (stereo not given) | 0.00297

Same assay, conditions: in n-octanol, 313.15 K

Row | Structure (SMILES) | solubility (mole fraction)
17 | O=C(Cn1cnc2c(sc(=S)n2-c2ccc(Cl)cc2)c1=O)NCC(O)(Cn1cncn1)c1ccc(F)cc1F (stereo not given) | 0.000861
18 | O=C(Cn1cnc2c(sc(=S)n2-c2ccc(F)cc2)c1=O)NCC(O)(Cn1cncn1)c1ccc(F)cc1F (stereo not given) | 0.000563
19 | Cc1ccc(-n2c(=S)sc3c(=O)n(CC(=O)NCC(O)(Cn4cncn4)c4ccc(F)cc4F)cnc32)cc1 (stereo not given) | 0.000638
20 | COc1ccccc1-n1c(=S)sc2c(=O)n(CC(=O)NCC(O)(Cn3cncn3)c3ccc(F)cc3F)cnc21 (stereo not given) | 0.00348
